We go through nine molecules from PubChem BioAssay (NCI).

Some test systems named below: SK-MEL-28 melanoma; COLO 205 colon; SF-539 CNS; NCI-H226 lung; UACC-257 melanoma; PC-3 prostate; CCRF-CEM leukemia; UO-31 renal; NCI-H23 lung; ACHN renal; CAKI-1 renal; RXF 393 renal.
Common to all, as to test: inhibition of tumour cell growth, NCI panel, 48 h

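Grown in 96-well plates, cells were treated for 48 hours with each compound at five concentrations. Insufficient inhibition: endpoint recorded as highest concentration tested. The concentration for full growth arrest is given as TGI.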 Where only a bound is given, the exact number is not on record here.

As for `Cc1cccc2sc(NC(=O)c3cc([N+](=O)[O-])ccc3Cl)nc12`, the TGI in the assay with SK-MEL-28 melanoma was > 94.2 µM; in the assay on COLO 205 colon, > 71.3 µM; in the assay on SF-539 CNS it was 6.25 µM; in the assay with NCI-H226 lung it was > 64.1 µM; in the assay on UACC-257 melanoma, > 100 µM; in the assay with PC-3 prostate, 38.4 µM. Moreover, the TGI was 2.76 µM in the assay with CCRF-CEM leukemia; 10.4 µM with UO-31 renal; 19.9 µM with NCI-H23 lung; > 100 µM with ACHN renal; > 44.8 µM in the assay on CAKI-1 renal; 12.9 µM with RXF 393 renal.
On to `O=[N+]([O-])c1ccc(Cl)cc1C1ON=C(c2ccccc2)N1C12CC3CC(CC(C3)C1)C2` (configuration not stated), for which the TGI in the assay on SK-MEL-28 melanoma, in the assay on COLO 205 colon, in the assay on SF-539 CNS, in the assay on NCI-H226 lung, in the assay with UACC-257 melanoma and in the assay with PC-3 prostate was > 100 µM in each case. In addition, the TGI with CCRF-CEM leukemia, in the assay on UO-31 renal, in the assay with NCI-H23 lung, in the assay with ACHN renal, in the assay with CAKI-1 renal and in the assay with RXF 393 renal was > 100 µM each time.
`O=C(O)c1c(CC(Cc2ccc3c(c2)CCCC3)C(=O)O)ccc2c1CCCC2` (configuration not stated): the TGI in the assay with SK-MEL-28 melanoma, in the assay on COLO 205 colon, in the assay with SF-539 CNS, in the assay with NCI-H226 lung, in the assay on UACC-257 melanoma and in the assay with PC-3 prostate was > 100 µM throughout. Besides, the TGI with CCRF-CEM leukemia, in the assay with UO-31 renal, in the assay with NCI-H23 lung, with ACHN renal, with CAKI-1 renal and with RXF 393 renal was > 100 µM in each case.
Take `COc1ccc(/C=C2\CN(C)CC3=C2OC(N)=C(C#N)C3c2ccc(OC)cc2)cc1` (configuration not stated): the TGI in the assay with SK-MEL-28 melanoma was > 100 µM; with COLO 205 colon it was > 100 µM; with SF-539 CNS, > 100 µM; in the assay with NCI-H226 lung it was > 100 µM; in the assay on UACC-257 melanoma, > 100 µM; in the assay with PC-3 prostate it was > 53.1 µM. The TGI with CCRF-CEM leukemia is 30.2 µM; in the assay with UO-31 renal, > 100 µM; in the assay on NCI-H23 lung, > 100 µM; in the assay on ACHN renal, > 100 µM; in the assay with CAKI-1 renal it was > 100 µM; with RXF 393 renal, > 86.9 µM.
Take `COC(=O)C(NC(=O)CNC(=O)CSc1nnc(COc2ccc(Cl)cc2)n1-c1ccccc1)C(C)C` (configuration not stated): the TGI turned out to be 31.1 µM with SK-MEL-28 melanoma; 34.1 µM in the assay with COLO 205 colon; 31.9 µM with SF-539 CNS; 38.3 µM in the assay on NCI-H226 lung; 34.6 µM with UACC-257 melanoma; 33 µM with PC-3 prostate. Further, the TGI in the assay with CCRF-CEM leukemia is > 100 µM; with UO-31 renal it was 33.3 µM; in the assay with NCI-H23 lung, 42.8 µM; in the assay with ACHN renal, 31.8 µM; with CAKI-1 renal it was 28.2 µM; with RXF 393 renal it was 32.8 µM.
Take `Clc1ccc(OCc2nnc3sc(-c4ccc(-c5ccc(Cl)cc5Cl)o4)nn23)c(Cl)c1`: the TGI in the assay with SK-MEL-28 melanoma came out at 60.9 µM; with COLO 205 colon, 73.7 µM; with SF-539 CNS it was 32.2 µM; with NCI-H226 lung, 41.5 µM; in the assay with UACC-257 melanoma it was 38.2 µM; in the assay with PC-3 prostate, 33.1 µM. Besides, the TGI with CCRF-CEM leukemia worked out at 68.2 µM; with UO-31 renal, 44.4 µM; with NCI-H23 lung, 54 µM; with ACHN renal, 45.8 µM; with CAKI-1 renal it was 86.2 µM; in the assay with RXF 393 renal it was 30.2 µM.
For the molecule `COC(=O)C1=NN2c3ccccc3C(=O)OCCC2C1` (configuration not stated), the TGI in the assay on SK-MEL-28 melanoma, in the assay with COLO 205 colon, in the assay on SF-539 CNS, with NCI-H226 lung, with UACC-257 melanoma and in the assay with PC-3 prostate was > 100 µM throughout. In addition, the TGI with CCRF-CEM leukemia, in the assay on UO-31 renal, in the assay with NCI-H23 lung, with ACHN renal, in the assay with CAKI-1 renal and with RXF 393 renal was > 100 µM throughout.
As for `O=c1c2cc(Br)ccc2oc2nc3n(c(=O)c12)CCCS3`, the TGI in the assay with SK-MEL-28 melanoma, in the assay with COLO 205 colon, in the assay with SF-539 CNS, with NCI-H226 lung, in the assay on UACC-257 melanoma and with PC-3 prostate was > 100 µM each time. Besides, the TGI with CCRF-CEM leukemia, with UO-31 renal, in the assay with NCI-H23 lung, in the assay with ACHN renal, with CAKI-1 renal and in the assay with RXF 393 renal was > 100 µM each time.
Consider `Cc1cccc(-c2cc(=O)c3ccc(C)nc3[nH]2)c1`, for which the TGI with SK-MEL-28 melanoma was > 100 µM; in the assay with COLO 205 colon it was 4.06 µM; with SF-539 CNS it was 14.6 µM; in the assay on NCI-H226 lung, 26.8 µM; in the assay on PC-3 prostate, > 82.9 µM; in the assay with CCRF-CEM leukemia it was > 22.8 µM. For the same molecule, the TGI in the assay with UO-31 renal is > 100 µM; in the assay on NCI-H23 lung, > 37.9 µM; with ACHN renal it was > 100 µM; with CAKI-1 renal it was > 100 µM; in the assay with RXF 393 renal it was > 100 µM.
